# Laboratory results published in patent US20090264383A1, “Inhibitor of Adenylyl Cyclase for Treating a Disorder of the Circadian Rhythm” (Medical Research Council, priority 2006, published 2009).
# Entries after “also recorded” stand apart in the source; their conditions may differ.
# Legend:
# [1] = tested on: organotypic SCN slices; experiment: Bioluminescence recording of circadian gene expression in organotypic SCN slices (mPer1::luc / PER2::LUC); type: cell-based, mice; conditions: for synchrony of SCN neurons (CCD imaging): 1.0 μM MDL for over 7 days, PER2::LUC slice; for effect on circadian amplitude / gene expression / effect on circadian period: wild-type mPer1::luc / PER2::LUC SCN slices
# Description: (§1) Per1::luciferase and; Per2-luc transgenic mice were used. For organotypic slice culture, brains were removed from pups 5-10 days old and sectioned at 300 um with a McIlwain “Tissue Chopper.” Slices were sorted and trimmed to contain principally SCN tissue and placed onto a Millipore membrane insert (PICMORG) for culture at 37° C. in 5% CO2 as described previously (Gainer et al, 1998).
# Recordings of luciferase activity from organotypic slices of SCN or peripheral tissues were made from 5-7 day old pups from PER2::LUC and, Per1::LUC mice using either photomultiplier assemblies for whole tissue emission or CCD camera for single SCN cell imaging (Hamamatsu Photonics Ltd, U.K.) as described May Wood et al 2006 Curr. Biol. Vol. 16 pp 599-605. cAMP-ELISA kit was purchased from R&D systems (Wiesbaden, Germany). NIH 3T3 cells were cultured as described (Kume et al 1999 Cell Vol 98 pp 193-205) and transfected using Genejuice (Novagen, San Diego, Calif.). […] Drugs were solubilized in medium or dimethylsulfoxide (DMSO) to make stock solutions 50-1000× the working solutions. [DMSO] was never greater than 0.4%. RNA-interference against Epac1 and Epac 2 used pre-validated sequences as instructed (Validated Stealth RNAi, Invitrogen, CA). Western Blots were performed as Reddy et al (2006 Curr. Biol. Vol 16 oo 1107-15). Behavioural rhythms, recorded by running wheel and passive infra-red movement detectors, were analysed in Clocklab (Actimetrics, Evanston Ill.). Central cannulae directed stereotaxically at the SCN and sub-cutaneous minipumps (Alzet® model 1002 pump and brain infusion kit II) for drug infusion were fitted as instructed (Durect Corp. Cupertino, Calif.).
# (§2) Statistical analysis was performed using Prism GraphPad™ and Statview™. Periods were calculated over ≧3 days recoding For comparative purposes, transcriptional amplitude from PMT recordings was calculated as 100× (post-treatment emission peak-trough/pre-treatment peak-trough). In all cases error bars indicate SEM about the mean where n≧3.
# [2] = tested on: NIH 3T3 cells; experiment: Circadian gene expression in NIH 3T3 cells transfected with mBmal1::luc reporter; type: cell-based, mouse; conditions: for effect on circadian gene expression / output: mBmal1::luc reporter
# Source text: Inhibition of the Gsα-binding site of AC caused a dose-dependent, reversible, dampening of circadian gene expression from Per1::luciferase organotypic SCN slice cultures, monitored by photomultiplier tubes. To determine the generality of this effect, we examined 3-T3 fibroblast cells. Abrogation of the endogenous oscillation of cAMP concentration stopped circadian gene expression as reported by Bmal1::luciferase reporter constructs P-site AC inhibition prolonged fibroblast period from ca. 21 hours to ca. 30 hours.
# (§3) Recordings of luciferase activity from organotypic slices of SCN or peripheral tissues were made from 5-7 day old pups from PER2::LUC and, Per1::LUC mice using either photomultiplier assemblies for whole tissue emission or CCD camera for single SCN cell imaging (Hamamatsu Photonics Ltd, U.K.) as described May Wood et al 2006 Curr. Biol. Vol. 16 pp 599-605. cAMP-ELISA kit was purchased from R&D systems (Wiesbaden, Germany). NIH 3T3 cells were cultured as described (Kume et al 1999 Cell Vol 98 pp 193-205) and transfected using Genejuice (Novagen, San Diego, Calif.). All drugs were purchased from Sigma-Aldrich (Poole, UK) except PKA/Epac-active cAMP analogues (Axxora; Grünberg; Germany) and KT5720 (Calbiochem, Nottingbam, UK). Drugs were solubilized in medium or dimethylsulfoxide (DMSO) to make stock solutions 50-1000× the working solutions. [DMSO] was never greater than 0.4%. RNA-interference against Epac1 and Epac 2 used pre-validated sequences as instructed (Validated Stealth RNAi, Invitrogen, CA). Western Blots were performed as Reddy et al (2006 Curr. Biol. Vol 16 oo 1107-15). Behavioural rhythms, recorded by running wheel and passive infra-red movement detectors, were analysed in Clocklab (Actimetrics, Evanston Ill.). Central cannulae directed stereotaxically at the SCN and sub-cutaneous minipumps (Alzet® model 1002 pump and brain infusion kit II) for drug infusion were fitted as instructed (Durect Corp. Cupertino, Calif.).
# as §2
# [3] = tested on: peripheral tissues; experiment: Circadian recording in organotypic cultures of peripheral tissues from mPER2::LUC mice; type: cell-based
# Description: as §3, with “RNA-interference against Epac1 and Epac 2 used pre-validated sequences as instructed (Validated Stealth RNAi, Invitrogen, CA). Western Blots were performed as Reddy et al (2006 Curr. Biol. Vol 16 oo 1107-15).” left out, “Central cannulae directed stereotaxically at the SCN and sub-cutaneous minipumps (Alzet® model 1002 pump and brain infusion kit II) for drug infusion were fitted as instructed (Durect Corp. Cupertino, Calif.).” left out
# Statistical analysis was performed using Prism GraphPad™ and Statview™. Periods were calculated over ≧3 days recoding For comparative purposes, transcriptional amplitude from PMT recordings was calculated as 100× (post-treatment emission peak-trough/pre-treatment peak-trough). […]
# [4] = tested on: cAMP levels; experiment: cAMP ELISA in synchronised NIH 3T3 fibroblast cultures; type: cell-based, mouse; conditions: for cAMP levels: MDL at highest doses used
# Description: as §1, §3
# [5] = tested on: JNK phosphorylation; experiment: Western blot of 3T3 cell extracts (JNK and CREB phosphorylation); type: cell-based, mouse; conditions: 3T3 cells, MDL 5.0 μm 40 hours; Epac agonist 100 μM, 2 hours
# Description: Epac had no effect on CREB phosphorylation.
# as §3
# [6] = tested on: NIH 3T3 cells; experiment: Luciferase expression from control non-circadian promoter in NIH 3T3 cells; type: cell-based, mouse
# [7] = target: adenylyl cyclase; conditions: irreversibly binds the Gsα site; cited from earlier work
# [8] = tested on: Clock mutant SCN; experiment: Circadian period in Clock heterozygous and homozygous mutant SCN; type: cell-based, mice
# Description: as §3, with “Central cannulae directed stereotaxically at the SCN and sub-cutaneous minipumps (Alzet® model 1002 pump and brain infusion kit II) for drug infusion were fitted as instructed (Durect Corp. Cupertino, Calif.).” left out
# [9] = tested on: SCN; experiment: Free-running period of wheel-running behaviour, THFA infused to SCN by minipump and central cannula; type: in vivo; conditions: chronic central THFA vs vehicle; continuous dim red light; nine mice
# Description: (a) Representative double-plotted, actograms of (left) vehicle- and (right) THFA-treated mice entrained to a photoschedule of 12 hours light (shaded) and 12 hours dark and fitted with osmotic mini-pump and central cannula directed at SCN (asterisk) Mice were then released into continuous dim-red light and free-running period determined Note longer period in THFA-treated mice.
# as §3, with “[DMSO] was never greater than 0.4%. RNA-interference against Epac1 and Epac 2 used pre-validated sequences as instructed (Validated Stealth RNAi, Invitrogen, CA). Western Blots were performed as Reddy et al (2006 Curr. Biol. Vol 16 oo 1107-15).” left out, “Central cannulae directed stereotaxically at the SCN and sub-cutaneous minipumps (Alzet® model 1002 pump and brain infusion kit II) for drug infusion were fitted as instructed (Durect Corp. Cupertino, Calif.).” left out
# [10] = Water solubility; type: physicochemical
# [11] = tested on: intact human neutrophils; conditions: Simchowitz et al 1983; cited from earlier work
# [12] = compared with THFA; cited from earlier work
# [13] = tested on: Slices/3T3 cells/other tissues; conditions: 10 mM LiCl2 (slices); 2 mM THFA (slices/3T3 cells/other tissues)
# Description: as §1
# [14] = target: T1, inositol monophosphatase (Homo sapiens, UniProt P29218); conditions: cited from earlier work
# T1 sequence (P29218 1-277): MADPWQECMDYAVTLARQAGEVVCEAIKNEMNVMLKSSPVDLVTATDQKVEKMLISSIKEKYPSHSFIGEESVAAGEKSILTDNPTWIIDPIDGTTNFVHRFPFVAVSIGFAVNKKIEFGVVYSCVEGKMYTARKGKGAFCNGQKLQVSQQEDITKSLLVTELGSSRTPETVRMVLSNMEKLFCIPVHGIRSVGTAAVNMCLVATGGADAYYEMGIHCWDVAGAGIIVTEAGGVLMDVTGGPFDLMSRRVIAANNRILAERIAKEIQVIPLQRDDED
# [15] = target: T2, inositol polyphosphate 1-phosphatase (Homo sapiens, UniProt P49441); conditions: cited from earlier work
# T2 sequence (P49441 1-399): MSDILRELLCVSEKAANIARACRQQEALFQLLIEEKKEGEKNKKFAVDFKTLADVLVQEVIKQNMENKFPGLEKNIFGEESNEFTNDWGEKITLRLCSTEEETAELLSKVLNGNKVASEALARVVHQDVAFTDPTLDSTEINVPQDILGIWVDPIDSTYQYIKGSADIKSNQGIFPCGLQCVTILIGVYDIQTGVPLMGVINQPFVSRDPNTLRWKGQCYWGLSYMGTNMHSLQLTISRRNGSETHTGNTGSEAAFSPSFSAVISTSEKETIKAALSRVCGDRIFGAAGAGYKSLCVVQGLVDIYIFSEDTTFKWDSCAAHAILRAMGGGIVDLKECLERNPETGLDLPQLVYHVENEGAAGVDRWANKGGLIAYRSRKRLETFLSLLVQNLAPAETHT
# [16] = target: T3, bisphosphate nucleotidase (Homo sapiens, UniProt O95861); conditions: cited from earlier work
# T3 sequence (O95861 1-308): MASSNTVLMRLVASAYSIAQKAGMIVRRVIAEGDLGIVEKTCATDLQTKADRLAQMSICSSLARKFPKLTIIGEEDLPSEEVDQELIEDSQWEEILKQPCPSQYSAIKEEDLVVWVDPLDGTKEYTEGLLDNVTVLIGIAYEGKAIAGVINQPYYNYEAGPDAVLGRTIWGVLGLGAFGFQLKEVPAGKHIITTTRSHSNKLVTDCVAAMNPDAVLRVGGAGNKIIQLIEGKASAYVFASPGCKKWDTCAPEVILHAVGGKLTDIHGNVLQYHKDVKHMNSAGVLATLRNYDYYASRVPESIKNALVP
# [17] = 1 mM lithium final concentration in human serum; cited from earlier work
molecule,measurement,setting,value
"Cl.c1ccc(C2CCCC2NC2=NCCCCCCCCCCC2)cc1 (stereo not drawn) [MDL-12,330A]",synchrony of SCN neurons (CCD imaging),[1],desynchronisation
same,synchrony of SCN neurons (CCD imaging),[1]; listed as MDL,became desynchronised
same,effect on circadian amplitude / gene expression,[1],"reversible suppression of circadian protein expression; also recorded: reversible, dose-dependent dampening of circadian gene expression; also recorded: loss of circadian amplitude; also recorded: dampens transcriptional amplitude"
same,effect on circadian period,[1],not affected
same,effect on circadian amplitude / gene expression,[1]; listed as MDL,"rapid, dose-dependent dampening of circadian cycling; also recorded: lost circadian amplitude"
same,effect on circadian gene expression / output,[2],dose dependent suppression of circadian gene expression
same,effect on circadian gene expression / output,[2]; listed as MDL,"Reversible, dose-dependent suppression of circadian output"
same,effect on circadian output,[3]; organotypic kidney slices from mPER-2-LUC mice,"Reversible, dose-dependent suppression of circadian output"
same,cAMP levels,[4],loss of measurable cAMP
same,cAMP levels,[4]; listed as MDL,suppressed cAMP levels to below the sensitivity of detection
same,JNK phosphorylation (pJNK),[5],decline in JNK phosphorylation
same,"luciferase expression from control, non-circadian promoter",[6],no effect on luciferase expression
same,IC50,[7],250 µM
9-(Tetrahydro-2′-furyl)adenine [THFA],saturating concentration of period lengthening (one-site inhibition model),[1]; SCN slices,around 2 mM
same,circadian period under combined AC and JNK inhibition,"[1]; THFA together with JNK inhibition, SCN and fibroblast clockwork",around 36 hours
same,period after removal of the drug,"[1]; in vitro, after chronic incubation with THFA",approx. 24 hours
same,circadian period,"[1]; mPer1::luc and mPER2-LUC SCN slices, dose-dependent increase from ca. 24",~31 h
same,effect on circadian period,[1],reversible increase of circadian period; also recorded: Extended circadian period; also recorded: Reversible period lengthening; also recorded: period effect; also recorded: rapidly reversible upon drug washout; also recorded: increased period in individual neurons
same,effect on circadian period,[8],prolongs circadian period; also recorded: additive to that of the Clock mutation
same,probable maximum period increase,[2]; 1.2 mM THFA,approximately 9 hours
same,circadian period,"[2]; 1.2 mM THFA, untreated about 21 hours",about 30 hours
same,effect on circadian period,[2]; 3T3 fibroblasts,Dose-dependent saturable period lengthening
same,circadian period,"[2]; fibroblasts transfected with mBmal::luc reporter, lengthening from ca. 21",~31 h
same,effect on circadian period,"[3]; 2 mM THFA, all peripheral tissues tested",lengthens period; also recorded: dramatic increase in circadian period; also recorded: increases period in all tissues tested
same,basal cAMP levels,[4]; THFA,maintains basal levels; also recorded: without affecting its nadir; also recorded: did not alter basal levels of cAMP
same,peak cAMP levels,[4]; THFA,"suppresses peak levels; also recorded: reduces the detectable, endogenous, biphasic rise in cAMP; also recorded: attenuated peak levels"
same,free-running circadian period,[9],"lengthens circadian period; also recorded: lengthening of free-running period; also recorded: significantly (p<0:01, t-test) lengthened"
same,water solubility,[10],water-soluble; also recorded: most readily water soluble
same,toxicity,[11],non-toxic
"Nc1ncnc2c1ncn2C1CCCC1 [9-(cyclopentyl)-adenine, 9-(Cyclopentyl)-adenine]",effect on circadian period,[1],Reversible period lengthening; also recorded: Period was lengthened
same,water solubility,[10],water soluble
same,solubility,"[10]; water, read-out: water soluble up to",≥ 125 mM
same,metabolic and chemical stability,[12],greater metabolic and chemical stability than THFA
[Li] [Lithium],increase in SCN period in vitro,[1]; 10 mM lithium,2 to 3 h
same,circadian period,"[1]; lithium treatment, organotypic slices, concentration not given",approximately 26 hours
same,increase in circadian period,"[1]; lithium, organotypic tissue extracts",~2 h
same,circadian period,[1]; slices in 10 mM lithium,26 h
same,appearance of slices / cells / tissues,[13],appear perfectly healthy
same,EC50,[14],< 2 mM
same,EC50,[15],< 2 mM
same,EC50,[16],< 2 mM
same,toxicity,[17],non-toxic
